The source of these data is US11046716B2, “Beta-lactamase inhibitors” (priority 2015, dated 2021).

One test addresses T1, SHV-5 (Klebsiella pneumoniae, UniProt P0A3M1).
T1 construct: made in house; host or cells: E. coli BL21(DE3)
The test can be described thus: β-lactamase enzyme inhibition assay, SHV-5 (cefotaxime substrate). Type of test: biochemical. The procedure, abridged:
(§1)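 IC50 is the inhibitor level cutting initial substrate hydrolysis rate by 50% relative to no-inhibitor controls, after 15 min enzyme–inhibitor preincubation at 37 °C. KPC-2 read with imipenem at 300 nm, SHV-5 with cefotaxime at 260 nm; enzymes were untagged, E. coli-expressed, chromatographically purified.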

Another test deals with T2, KPC-2 (Klebsiella pneumoniae, UniProt Q9F663).
T2 construct: made in house; host or cells: E. coli BL21(DE3)
The test can be described thus: β-lactamase enzyme inhibition assay, KPC-2 (imipenem substrate). It is filed as biochemical. The note with it: Class A; imipenem substrate, 300 nm; read-out: KPC-2. The procedure, abridged: as §1

Another test has as its target T3, VIM-2 (Escherichia coli, UniProt Q5U7L7).
T3 construct: made in house; host or cells: E. coli BL21(DE3)
The test can be described thus: β-lactamase enzyme inhibition assay, VIM-2 (nitrocefin substrate). It is filed as biochemical. The note with it: Class B; nitrocefin substrate, 486 nm; read-out: VIM-2. The procedure, abridged:
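Metallo-β-lactamase VIM-2 activity was tracked spectrophotometrically at 486 nm with 100 μM nitrocefin over 10 min, following 15 min preincubation with compound at 37 °C; inhibition was calculated per concentration.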

A further test deals with T4, AmpC (Enterobacter cloacae, UniProt P05364).
T4 construct: made in house; host or cells: E. coli BL21(DE3)
The test is described as follows: β-lactamase enzyme inhibition assay, p99 AmpC (nitrocefin substrate). It is filed as biochemical. The procedure, abridged:
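IC50 is the inhibitor level cutting initial substrate hydrolysis rate by 50% relative to no-inhibitor controls, after 15 min enzyme–inhibitor preincubation at 37 °C. enzymes were untagged, E. coli-expressed, chromatographically purified.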

The target of the next test is OXA-48 (UniProt Q6XEC0). The test is described as follows: β-lactamase enzyme inhibition assay, Class D oxacillinase. Type of test: biochemical. The note with it: read-out: OXA-48.
Test [1] relates to E. coli expressing the Class A Extended Spectrum Beta-Lactamase (ESBL) CTX-M-15. The test is described as follows: Broth microdilution MIC assay with ceftazidime, E. coli CTX-M-15. It is filed as cell-based. The conditions noted are these: Fixed CAZ (ceftazidime) 4 μg/mL; E. coli ESBL4 CTX-M-15. The procedure, abridged:
(§2)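 In cation-adjusted Mueller Hinton broth, bacteria pre-grown 3-5 hours were exposed to test compound (2-fold, 16–0.125 μg/mL) plus a static 4 μg/ml β-lactam. A panel of control β-lactams was run alongside, and the compound MIC was judged by eye following 16-20 hours at 37° C.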
Background: Broth dilution looks for growth in wells or tubes with falling amounts of substance.

In test [2] the test system is E. cloacae expressing the Class C P99. The test is described as follows: Broth microdilution MIC assay with ceftazidime, E. cloacae P99. Type of test: cell-based. The conditions noted are these: Fixed CAZ (ceftazidime) 4 μg/mL; E. cl. 144200 p99 AmpC. The procedure, abridged:
as §2

Test [3] has as its system K. pneumoniae expressing the Class A carbapenemase KPC-2. The test is described as follows: Broth microdilution MIC assay with meropenem, K. pneumoniae KPC-2. Type of test: cell-based. The note with it: Fixed Mero (meropenem) 4 μg/mL; K. p. 156319 KPC-3. The procedure, abridged: as §2
Test [4] relates to P. aeruginosa expressing the Class B carbapenemase VIM-2. The test can be described thus: Broth microdilution MIC assay with meropenem, P. aeruginosa VIM-2. It is filed as cell-based. The conditions noted are these: Fixed Mero (meropenem) 4 μg/mL; P. aerug. 2775 VIM-2. The procedure, abridged:
as §2

The subject of test [5] is K. pneumoniae expressing the class A carbapenemase KPC-2 and the class B carbapenemase VIM-4. The test is described as follows: Broth microdilution MIC assay with meropenem, K. pneumoniae KPC-2 and VIM-4. Type of test: cell-based. The conditions noted are these: Fixed Mero (meropenem) 4 μg/mL; K. p. A-1797 KPC-2 VIM-4. The procedure, abridged: as §2
The test system of test [6] is K. pneumoniae producing the Class D carbapenemase OXA-48. The test can be described thus: Broth microdilution MIC assay with meropenem, K. pneumoniae OXA-48. Type of test: cell-based. The conditions noted are these: Fixed Mero (meropenem) 4 μg/mL; K. p. 11978 OXA-48. The procedure, abridged:
as §2

T1 sequence (P0A3M1 22-286): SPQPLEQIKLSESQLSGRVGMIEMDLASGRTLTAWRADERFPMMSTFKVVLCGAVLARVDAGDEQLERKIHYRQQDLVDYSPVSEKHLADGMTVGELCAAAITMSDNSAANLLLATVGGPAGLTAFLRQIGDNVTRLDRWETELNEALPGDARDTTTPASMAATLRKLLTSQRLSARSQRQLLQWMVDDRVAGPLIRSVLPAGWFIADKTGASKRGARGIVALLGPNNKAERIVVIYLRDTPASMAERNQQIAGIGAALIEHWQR
T2 sequence (Q9F663 25-293, looked up): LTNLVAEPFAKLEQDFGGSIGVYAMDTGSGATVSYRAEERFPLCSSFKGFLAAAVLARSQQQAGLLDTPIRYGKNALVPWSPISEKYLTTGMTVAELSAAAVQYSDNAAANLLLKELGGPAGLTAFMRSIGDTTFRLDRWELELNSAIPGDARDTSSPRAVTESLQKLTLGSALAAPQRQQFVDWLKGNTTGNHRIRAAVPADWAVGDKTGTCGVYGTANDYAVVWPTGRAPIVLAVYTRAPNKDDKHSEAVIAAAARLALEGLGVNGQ
T4 sequence (P05364 21-381): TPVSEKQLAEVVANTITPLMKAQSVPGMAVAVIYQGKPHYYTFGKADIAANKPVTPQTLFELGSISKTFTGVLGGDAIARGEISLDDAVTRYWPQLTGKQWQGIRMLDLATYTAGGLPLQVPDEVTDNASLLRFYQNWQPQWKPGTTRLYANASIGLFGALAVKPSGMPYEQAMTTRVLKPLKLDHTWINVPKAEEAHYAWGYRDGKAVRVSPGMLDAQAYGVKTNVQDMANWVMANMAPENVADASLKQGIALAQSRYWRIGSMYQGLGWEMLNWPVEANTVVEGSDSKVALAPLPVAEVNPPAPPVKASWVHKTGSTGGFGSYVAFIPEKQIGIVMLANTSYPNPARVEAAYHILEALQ

As to `NC1CCN(C(=O)c2cn(CC(=O)N[C@H]3Cc4cccc(C(=O)O)c4OB3O)nn2)CC1` [Example 82, (R)-3-(2-(4-(4-aminopiperidine-1-carbonyl)-1H-1,2,3-triazol-1-yl)acetamido)-2-hydroxy-3,4-dihydro-2H-benzo[e][1,2]oxaborinine-8-carboxylic acid], the IC50 is < 100 nM against SHV-5; < 100 nM on KPC-2; 100 to 1000 nM on VIM-2; < 100 nM on AmpC; 100 to 1000 nM on OXA-48. Besides, in test [1], the “MIC (μg/mL) of Exemplary Compounds in presence of fixed β-lactams: E. coli ESBL4 CTX-M-15” value (shortened to “MIC (μg/mL) … E. coli ESBL4 CTX-M-15”) is recorded as “C (C represents an MIC of <1 μg/mL)”. For the same compound, the “MIC (μg/mL) of Exemplary Compounds in presence of fixed β-lactams: E. cl. 144200 p99 AmpC” value (from here on “MIC (μg/mL) … E. cl. 144200 p99 AmpC”) in [2] was “C (C represents an MIC of <1 μg/mL)”. Moreover, the “MIC (μg/mL) of Exemplary Compounds in presence of fixed β-lactams: K. p. 156319 KPC-3” value (“MIC (μg/mL) … K. p. 156319 KPC-3” for short) in test [3] is given as “C (C represents an MIC of <1 μg/mL)”. In addition, the “MIC (μg/mL) of Exemplary Compounds in presence of fixed β-lactams: P. aerug. 2775 VIM-2” value (“MIC (μg/mL) … P. aerug. 2775 VIM-2” for short) in test [4] was “C (C represents an MIC of <1 μg/mL)”. Moreover, in test [5], the “MIC (μg/mL) of Exemplary Compounds in presence of fixed β-lactams: K. p. A-1797 KPC-2 VIM-4” value (shortened to “MIC (μg/mL) … K. p. A-1797 KPC-2 VIM-4”) is “B (B represents an MIC between 1 and 16 μg/mL inclusive)”. Also, in [6], the “MIC (μg/mL) of Exemplary Compounds in presence of fixed β-lactams: K. p. 11978 OXA-48” value (“MIC (μg/mL) … K. p. 11978 OXA-48” below) is given as “C (C represents an MIC of <1 μg/mL)”.

Turning to `N=C(N)NCc1cn(CC(=O)N[C@H]2Cc3cccc(C(=O)O)c3OB2O)nn1` [Example 3, (R)-3-(2-(4-(guanidinomethyl)-1H-1,2,3-triazol-1-yl)acetamido)-2-hydroxy-3,4-dihydro-2H-benzo[e][1,2]oxaborinine-8-carboxylic acid], the IC50 against SHV-5, on KPC-2, at VIM-2, against AmpC and on OXA-48 was < 100 nM throughout. Further, the “MIC (μg/mL) … E. coli ESBL4 CTX-M-15” value in test [1] is “C (C represents an MIC of <1 μg/mL)”. In test [2], the “MIC (μg/mL) … E. cl. 144200 p99 AmpC” value is “C (C represents an MIC of <1 μg/mL)”. In test [3], the “MIC (μg/mL) … K. p. 156319 KPC-3” value is reported as “C (C represents an MIC of <1 μg/mL)”. The “MIC (μg/mL) … P. aerug. 2775 VIM-2” value in test [4] was “C (C represents an MIC of <1 μg/mL)”. In addition, the “MIC (μg/mL) … K. p. A-1797 KPC-2 VIM-4” value in test [5] is reported as “C (C represents an MIC of <1 μg/mL)”. For the same compound, the “MIC (μg/mL) … K. p. 11978 OXA-48” value in test [6] is reported as “C (C represents an MIC of <1 μg/mL)”.

`Nc1cnn(CC(=O)N[C@H]2Cc3cccc(C(=O)O)c3OB2O)c1` [Example 58, (R)-3-(2-(4-amino-1H-pyrazol-1-yl)acetamido)-2-hydroxy-3,4-dihydro-2H-benzo[e][1,2]oxaborinine-8-carboxylic acid]: the IC50 is < 100 nM at SHV-5; < 100 nM at KPC-2; 100 to 1000 nM at VIM-2; < 100 nM at AmpC; 100 to 1000 nM on OXA-48. Also, the “MIC (μg/mL) … E. coli ESBL4 CTX-M-15” value in test [1] is “C (C represents an MIC of <1 μg/mL)”. The “MIC (μg/mL) … E. cl. 144200 p99 AmpC” value in test [2] is listed as “C (C represents an MIC of <1 μg/mL)”. In addition, the “MIC (μg/mL) … K. p. 156319 KPC-3” value in test [3] is “B (B represents an MIC between 1 and 16 μg/mL inclusive)”. Further, the “MIC (μg/mL) … P. aerug. 2775 VIM-2” value in test [4] was “B (B represents an MIC between 1 and 16 μg/mL inclusive)”. The “MIC (μg/mL) … K. p. A-1797 KPC-2 VIM-4” value in [5] is “B (B represents an MIC between 1 and 16 μg/mL inclusive)”. The “MIC (μg/mL) … K. p. 11978 OXA-48” value in test [6] was “B (B represents an MIC between 1 and 16 μg/mL inclusive)”.

Take `O=C(Cc1nnn(C2CNC2)n1)N[C@H]1Cc2cccc(C(=O)O)c2OB1O` [Example 100, (R)-3-(2-(2-(azetidin-3-yl)-2H-tetrazol-5-yl)acetamido)-2-hydroxy-3,4-dihydro-2H-benzo[e][1,2]oxaborinine-8-carboxylic acid]: the IC50 at SHV-5 was < 100 nM; on KPC-2, 100 to 1000 nM; on VIM-2 it was < 100 nM; on AmpC, < 100 nM; on OXA-48, < 100 nM. The “MIC (μg/mL) … E. coli ESBL4 CTX-M-15” value in test [1] is given as “C (C represents an MIC of <1 μg/mL)”. The “MIC (μg/mL) … E. cl. 144200 p99 AmpC” value in [2] is “C (C represents an MIC of <1 μg/mL)”. Also, in test [3], the “MIC (μg/mL) … K. p. 156319 KPC-3” value is “C (C represents an MIC of <1 μg/mL)”. The “MIC (μg/mL) … P. aerug. 2775 VIM-2” value in [4] was “C (C represents an MIC of <1 μg/mL)”. Further, the “MIC (μg/mL) … K. p. A-1797 KPC-2 VIM-4” value in test [5] is “B (B represents an MIC between 1 and 16 μg/mL inclusive)”. Further, the “MIC (μg/mL) … K. p. 11978 OXA-48” value in test [6] is recorded as “C (C represents an MIC of <1 μg/mL)”.

On to `NCc1cnn(CC(=O)N[C@H]2Cc3cccc(C(=O)O)c3OB2O)c1` [Example 68, (R)-3-(2-(4-(aminomethyl)-1H-pyrazol-1-yl)acetamido)-2-hydroxy-3,4-dihydro-2H-benzo[e][1,2]oxaborinine-8-carboxylic acid], for which the IC50 against SHV-5 is 100 to 1000 nM; at KPC-2 it was < 100 nM; at VIM-2, 100 to 1000 nM; on AmpC, < 100 nM; at OXA-48, 100 to 1000 nM. Moreover, the “MIC (μg/mL) … E. coli ESBL4 CTX-M-15” value in [1] is “C (C represents an MIC of <1 μg/mL)”. The “MIC (μg/mL) … E. cl. 144200 p99 AmpC” value in [2] is “C (C represents an MIC of <1 μg/mL)”. Moreover, in test [3], the “MIC (μg/mL) … K. p. 156319 KPC-3” value is “C (C represents an MIC of <1 μg/mL)”. The “MIC (μg/mL) … P. aerug. 2775 VIM-2” value in test [4] is reported as “C (C represents an MIC of <1 μg/mL)”. For the same compound, in [5], the “MIC (μg/mL) … K. p. A-1797 KPC-2 VIM-4” value is “B (B represents an MIC between 1 and 16 μg/mL inclusive)”. In addition, in test [6], the “MIC (μg/mL) … K. p. 11978 OXA-48” value was “B (B represents an MIC between 1 and 16 μg/mL inclusive)”.

Regarding `NCCCn1nnnc1CC(=O)N[C@H]1Cc2cccc(C(=O)O)c2OB1O` [Example 50, (R)-3-(2-(1-(3-aminopropyl)-1H-tetrazol-5-yl)acetamido)-2-hydroxy-3,4-dihydro-2H-benzo[e][1,2]oxaborinine-8-carboxylic acid], the IC50 on SHV-5 is < 100 nM; on KPC-2, < 100 nM; at VIM-2, < 100 nM; against AmpC it was < 100 nM; at OXA-48, 1000 to 10000 nM. Also, in test [1], the “MIC (μg/mL) … E. coli ESBL4 CTX-M-15” value was “C (C represents an MIC of <1 μg/mL)”. The “MIC (μg/mL) … E. cl. 144200 p99 AmpC” value in test [2] is reported as “C (C represents an MIC of <1 μg/mL)”. For the same compound, the “MIC (μg/mL) … K. p. 156319 KPC-3” value in test [3] is recorded as “C (C represents an MIC of <1 μg/mL)”. Also, the “MIC (μg/mL) … P. aerug. 2775 VIM-2” value in test [4] was “C (C represents an MIC of <1 μg/mL)”. Besides, the “MIC (μg/mL) … K. p. A-1797 KPC-2 VIM-4” value in [5] is “C (C represents an MIC of <1 μg/mL)”. In addition, the “MIC (μg/mL) … K. p. 11978 OXA-48” value in [6] was “B (B represents an MIC between 1 and 16 μg/mL inclusive)”.
